Assay results from PMC3355305, “Localized Dimerization and Nucleoid Binding Drive Gradient Formation by the Bacterial Cell Division Inhibitor MipZ” (Molecular Cell, 2012).
Changes are numbered by the printed parent chain.

Columns and labels:
WT (MipZ) [1] = molecular target: T1, WT (MipZ) (Caulobacter vibrioides, UniProt Q9A6C9); assay: Stopped-flow FRET transient kinetics of mant-ADP binding to MipZ (excitation 297 nm, 360 nm cut-off) at 30 °C in 50 mM Hepes/NaOH pH 7.2, 50 mM KCl, 10 mM MgCl2, 1 mM β-mercaptoethanol; KD calculated as koff/kon, with koff from displacement by excess unlabeled nucleotide.
T1 construct: hexahistidine-tagged, full length, overproduced in E. coli Rosetta2(DE3)pLysS
T1 sequence (Q9A6C9 1-278): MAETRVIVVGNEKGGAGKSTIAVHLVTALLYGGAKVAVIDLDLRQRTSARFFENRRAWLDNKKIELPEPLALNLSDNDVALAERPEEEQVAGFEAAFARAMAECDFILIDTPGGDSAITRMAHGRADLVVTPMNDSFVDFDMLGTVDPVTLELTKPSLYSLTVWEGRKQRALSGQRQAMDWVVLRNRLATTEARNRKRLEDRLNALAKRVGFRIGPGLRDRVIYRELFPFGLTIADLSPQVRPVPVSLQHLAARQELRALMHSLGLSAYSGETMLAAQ
From the text: (§1) Once released from the dimeric complex, MipZ monomers must undergo nucleotide exchange to enter the next reaction cycle (Figure 2A). To clarify the requirements for the exchange reaction, we studied the nucleotide binding kinetics of MipZ by monitoring its interaction with methylanthraniloyl (mant)-labeled ADP and ATP analogs (Figure S3). Since the mant group blocks dimer formation, our measurements specifically focused on the initial nucleotide-binding step without interference from subsequent reactions.
(§2) Figure S3. Steady-state and transient kinetic analysis of nucleotide binding to MipZ, Related to Table 2.
(§3) (A) Fluorescence emission spectra of mant-ATP. MipZ (1 µM) and/or mant-ATP (60 µM) were mixed in buffer BC containing no (+ Mg2+) or 10 mM (- Mg2+) EDTA. Emission spectra were recorded in a PC1 photon-counting spectrofluorimeter (ISS) using fluorescence resonance energy transfer (FRET) and an excitation wavelength of 290 nm.
(§4) (B) Association of MipZ with mant nucleotides.
(§5) (data not shown), necessitating the use of ADP and ATP analogues that carried a fluorescent methylanthraniloyl (mant) group attached to the 2'- or 3'-hydroxy group of the ribose moiety. Due to the bulkiness of the mant group and a critical role of these hydroxy groups in MipZ dimerization, the modified nucleotides are predicted to block dimer formation, consistent with their failure to be hydrolyzed by MipZ or mediate MipZ self-association in the SPR assay (data not shown). This circumstance allowed us to focus the measurements on the initial nucleotide binding step without interference from subsequent reactions.
(§6) Interaction of the mant group with the protein surface led to a marked increase in fluorescence (panel A). Consistent with the easy accessibility of the nucleotide-binding site and the lack of major conformational changes, the transients recorded after rapid mixing of MipZ with mant nucleotides could be fitted to single-exponential equations, indicating single-step binding reactions.
(§7) Shown is a typical curve representing the change in mant fluorescence upon binding of mant-ATP (30 µM) to MipZ (1 µM).
(§8) Fitting of the data yielded a pseudo-first order rate constant (kobs) of 4.7 s-1. […]
(§9) determining the second-order rate constant of the association reaction. Shown is a representative graph in which the kobs values measured for mant-ATP were plotted against the corresponding mant-ATP concentrations. […]
(§10) (D) Dissociation of mant nucleotides from MipZ. In order to determine the dissociation rate constants (koff), we monitored the displacement of mant-labeled nucleotides from MipZ by an excess of unlabeled nucleotide. […] Shown is a typical curve representing the change in mant fluorescence upon dissociation of mant-ATP (30 µM) from MipZ (1 µM) in the presence of 2 mM ATP. […]

G14V [2] = molecular target: T2, G14V (Caulobacter vibrioides, UniProt Q9A6C9, G14V); assay: as above
T2 construct: gene mipZ; hexahistidine-tagged, full length, overproduced in E. coli Rosetta2(DE3)pLysS; constitutively monomeric
T2 sequence (Q9A6C9 1-278 G14V): T1 sequence (Q9A6C9 1-278) with G14V
From the text: as §1, §2, §3, §4, §5, §6, §7, §8, §9, §10

D42A [3] = molecular target: T3, D42A (Caulobacter vibrioides, UniProt Q9A6C9, D42A); assay: as above
T3 construct: gene mipZ; hexahistidine-tagged, full length, overproduced in E. coli Rosetta2(DE3)pLysS
T3 sequence (Q9A6C9 1-278 D42A): T1 sequence (Q9A6C9 1-278) with D42A
From the text: as §1, §2, §3, §4, §5, §6, §7, §8, §9, §10

K13A [4] = molecular target: T4, K13A (Caulobacter vibrioides, UniProt Q9A6C9, K13A); assay: as above
T4 construct: gene mipZ; hexahistidine-tagged, full length, overproduced in E. coli Rosetta2(DE3)pLysS; constitutively monomeric
T4 sequence (Q9A6C9 1-278 K13A): T1 sequence (Q9A6C9 1-278) with K13A
From the text: as §1, §2, §3, §4, §5, §6, §7, §8, §9, §10

WT (MipZ) [5] = molecular target: T1, WT (MipZ); assay: Stopped-flow FRET transient kinetics of mant-ATP binding to MipZ (excitation 297 nm, 360 nm cut-off) at 30 °C in 50 mM Hepes/NaOH pH 7.2, 50 mM KCl, 10 mM MgCl2, 1 mM β-mercaptoethanol; KD calculated as koff/kon, with koff from displacement by excess unlabeled nucleotide.
From the text: as §1, §2, §3, §4, §5, §6, §7
(§11) Fitting of the data yielded a pseudo-first order rate constant (kobs) of 4.7 s-1.
(§12) (C) Determination of the second-order association rate constants (kon). The pseudo-first order rate constants for the association of […]
(§13) determining the second-order rate constant of the association reaction. Shown is a representative graph in which the kobs values measured for mant-ATP were plotted against the corresponding mant-ATP concentrations. Fitting of the data to the linear function kobs=kon[mant-ATP]+koff yielded a value of 6.8 x 104 M-1s-1 for kon.
(§14) (D) Dissociation of mant nucleotides from MipZ. In order to determine the dissociation rate constants (koff), we monitored the displacement of mant-labeled nucleotides from MipZ by an excess of unlabeled nucleotide. All transients obtained could be fitted to single-exponential functions. Shown is a typical curve representing the change in mant fluorescence upon dissociation of mant-ATP (30 µM) from MipZ (1 µM) in the presence of 2 mM ATP. […]

G14V [6] = molecular target: T2, G14V; assay: as above
From the text: as §1, §2, §3, §4, §5, §6, §7, §11, §12, §13, §14

D42A [7] = molecular target: T3, D42A; assay: as above
From the text: as §1, §2, §3, §4, §5, §6, §7, §11, §12, §13, §14

K13A [8] = molecular target: T4, K13A; assay: as above
From the text: as §1, §2, §3, §4, §5, §6, §7, §11, §12, §13, §14

K18Q = molecular target: T5, K18Q (Caulobacter vibrioides, UniProt Q9A6C9, K18Q); assay: as above
T5 construct: gene mipZ; hexahistidine-tagged, full length, overproduced in E. coli Rosetta2(DE3)pLysS; constitutively monomeric
T5 sequence (Q9A6C9 1-278 K18Q): T1 sequence (Q9A6C9 1-278) with K18Q
From the text: as §1, §2, §3, §4, §5, §6, §7, §11, §12, §13, §14

| SMILES | Kd (WT (MipZ) [1]) [µM] | Kd (G14V [2]) [µM] | Kd (D42A [3]) [µM] | Kd (K13A [4]) [µM] | Kd (WT (MipZ) [5]) [µM] | Kd (G14V [6]) [µM] | Kd (D42A [7]) [µM] | Kd (K13A [8]) [µM] | Kd (K18Q) [µM] |
| --- | --- | --- | --- | --- | --- | --- | --- | --- | --- |
| CNc1ccccc1C(=O)O[C@H]1[C@@H](O)[C@H](n2cnc3c(N)ncnc32)O[C@@H]1COP(=O)(O)OP(=O)(O)O [mant-ADP, 2'/3'-O-methylanthraniloyl-ADP (methylanthraniloyl-labeled ADP)] | 26 | 4.5 | 69 | 41 |  |  |  |  |  |
| CNc1ccccc1C(=O)O[C@H]1[C@@H](O)[C@H](n2cnc3c(N)ncnc32)O[C@@H]1CO[P@@](=O)(O)O[P@](=O)(O)OP(=O)(O)O [mant-ATP, 2'/3'-O-methylanthraniloyl-ATP (methylanthraniloyl-labeled ATP)] |  |  |  |  | 31 | 1.3 | 58 | 38 | 121 |
